Patent US20100137391A1, “Histamine H3 Agonist for use as Therapeutic Agent for a Lipid/Glucose Metabolic Disorder” (priority 2005, published 2010)

How the values were obtained:
wild type mice [1] = test: Measurement of amount of food intake (and body weight), wild type mice; format: in vivo
From the text: (§1) Histamine H3 receptor knockout mice (hereinafter referred to as “H3RKO mice”) were produced by the method of Takahashi et al. (J. Clin. Invest, Vol. 110, p. 1791, 2002). The obtained knockout mice were subjected to back crossing with C57BL/6J over 5 generations. Six- to nine-month-old male litters were used in an acute drug administration test. On the other hand, 18- to 20-month-old mice whose parents were H3RKO mice or wild type mice (N5 of C57BL/6J) were used in a chronic drug administration test.
(§2) All mice were individually bred at 25° C., and light and dark were controlled every 12 hours. During breeding, water and feed were freely given to the mice. As such feed, CE2 (CLEA Japan, Inc.) was given to thin mice, and medium high fat diet (Oriental Bio Service Co., Ltd.) was given to DIO mice.
(§3) The concentration of each compound was set at 5 ml/kg.
(§4) The amount of food intake was measured based on the weight of feed at 19:00 and 23:00.

H3RKO mice [2] = test: Measurement of amount of food intake (and body weight), H3RKO mice; format: in vivo
From the text: as §1, §2, §3, §4

wild type mice [3] = test system: wild type mice
From the text: as §1, §2, §3
(§5) Mice were divided into groups, depending on mean body weight and the amount of daily food intake before administration of the compound. The body weight and the amount of food intake were measured every day.
(§6) In the test using Thioperamide, mice were divided into 4 groups: a group in which a solvent was administered to C57BL/6J DiO mice at 9:00; a group in which 10 mpk Thioperamide was administered thereto at 9:00; a group in which a solvent was administered to C57BL/6J DiO mice at 17:00; and a group in which 10 mpk Thioperamide was administered thereto at 17:00. […] On the 10th day after the administration, such mice were left in a starvation state for 2 hours. Thereafter, blood was collected from the orbit of each mouse, and the glucose and insulin levels were measured.
(§7) A change in body weight was calculated by dividing a decrease in body weight by the body weight on day 0 at initiation of the test, and the calculated value was expressed as a percentage. The degree of obesity was measured using an NMR analyzer (Minispec; Bruker).

H3RKO mice [4] = test: Anti-obesity test with Imetit, H3RKO mice; format: in vivo
From the text: as §1, §2, §3, §5, §6, §7

C57BL/6J mice = test: Measurement of energy consumption (indirect calorimetry); format: in vivo; conditions: Imetit 5 mpk and 20 mpk vs vehicle
Experimental: Energy consumption was measured using Indirect calorimetry (Columbus Instrument). That is to say, C57BL/6J mice were acclimatized in a test chamber overnight, and VO2 (oxygen consumption) and VCO2 […] were then measured for 1 minute every 10 minutes. Sample air was collected every 10 minutes. RQ (respiratory quotient) was calculated by dividing […]. The test was carried out from 9:00 to 17:00. During the test, mice were allowed to freely ingest feed and water.

C57BL/6J DiO mice = test: Anti-obesity test with Thioperamide; format: in vivo; conditions: 10 mpk Thioperamide at 9:00 or 17:00; FIG. 6
Experimental: as §2, §3, §5, §6, §7

[5] = Wild type, 10th day after administration, 2 hours starvation, blood
[6] = Wild type, Imetit twice a day, NMR analyzer
[7] = H3RKO, 10th day after administration, 2 hours starvation, blood
[8] = H3RKO, Imetit twice a day, NMR analyzer

N=C(N)SCCc1c[nH]cn1 [Imetit, carbamimidothioic acid 2-(1H-imidazol-4-yl)ethyl ester]
change in body weight (wild type mice [1]; FIG. 3): decreased depending on the number of doses
amount of food intake (wild type mice [1]; oral administration, vs solvent control mice, FIG. 1): lower than that of control mice
change in body weight (H3RKO mice [2]; FIG. 4): such a change in body weight was not observed
amount of food intake (H3RKO mice [2]; oral administration, vs solvent control mice, FIG. 2): such a decrease in the amount of food intake was not observed
abnormal glucose tolerance (wild type mice [3]): improved
Glucose (wild type mice [3]; [5]): 164.1 ± 6.4 mg/dL
Insulin (wild type mice [3]; [5]): 4.7 ± 0.8 ng/mL
Fat (%) (wild type mice [3]; [6]): 39.2 ± 2.0 %
Lean body mass (%) (wild type mice [3]; [6]): 58.3 ± 1.6 %
insulin concentration in blood (wild type mice [3]; together with fat-decreasing effect): decreased
body weight-decreasing effect (H3RKO mice [4]; H3RKO mice, Imetit twice a day): such effect was not observed in H3RKO mice
Glucose (H3RKO mice [4]; [7]): 166.7 ± 10.5 mg/dL
Insulin (H3RKO mice [4]; [7]): 4.7 ± 0.9 ng/mL
Fat (%) (H3RKO mice [4]; [8]): 46.3 ± 2.0%
Lean body mass (%) (H3RKO mice [4]; [8]): 52.7 ± 1.4%
VO2 (oxygen consumption) (C57BL/6J mice; FIG. 8, 11): increases
VCO2 (C57BL/6J mice; FIG. 9, 11): increases
RQ (respiratory quotient) (C57BL/6J mice; FIG. 10, 11): decrease

S=C(NC1CCCCC1)N1CCC(c2cnc[nH]2)CC1 [Thioperamide]
body weight of fat mice (C57BL/6J DiO mice): tendency that the body weight of fat mice was increased
